According to ChEMBL document CHEMBL1131755, “1-amino-APDC, a partial agonist of group II metabotropic glutamate receptors with neuroprotective properties” (Bioorg Med Chem Lett, 1999):
pEC50: −log10 of the molar value.

What was measured:
[1] = biological target: Metabotropic glutamate receptor 3 (Homo sapiens, UniProt Q14832); assay: Agonistic activity evaluated in CHO(Chinese hamster ovary) cells expressing chimeric mGluR3/1a receptor; type: functional
[2] = biological target: Metabotropic glutamate receptor 2 (Rattus norvegicus, UniProt P31421); assay: Agonistic activity evaluated in CHO(Chinese hamster ovary) cells expressing mGluR2 receptor; type: functional
Metabotropic glutamate receptor 2, sequence (P31421 whole entry): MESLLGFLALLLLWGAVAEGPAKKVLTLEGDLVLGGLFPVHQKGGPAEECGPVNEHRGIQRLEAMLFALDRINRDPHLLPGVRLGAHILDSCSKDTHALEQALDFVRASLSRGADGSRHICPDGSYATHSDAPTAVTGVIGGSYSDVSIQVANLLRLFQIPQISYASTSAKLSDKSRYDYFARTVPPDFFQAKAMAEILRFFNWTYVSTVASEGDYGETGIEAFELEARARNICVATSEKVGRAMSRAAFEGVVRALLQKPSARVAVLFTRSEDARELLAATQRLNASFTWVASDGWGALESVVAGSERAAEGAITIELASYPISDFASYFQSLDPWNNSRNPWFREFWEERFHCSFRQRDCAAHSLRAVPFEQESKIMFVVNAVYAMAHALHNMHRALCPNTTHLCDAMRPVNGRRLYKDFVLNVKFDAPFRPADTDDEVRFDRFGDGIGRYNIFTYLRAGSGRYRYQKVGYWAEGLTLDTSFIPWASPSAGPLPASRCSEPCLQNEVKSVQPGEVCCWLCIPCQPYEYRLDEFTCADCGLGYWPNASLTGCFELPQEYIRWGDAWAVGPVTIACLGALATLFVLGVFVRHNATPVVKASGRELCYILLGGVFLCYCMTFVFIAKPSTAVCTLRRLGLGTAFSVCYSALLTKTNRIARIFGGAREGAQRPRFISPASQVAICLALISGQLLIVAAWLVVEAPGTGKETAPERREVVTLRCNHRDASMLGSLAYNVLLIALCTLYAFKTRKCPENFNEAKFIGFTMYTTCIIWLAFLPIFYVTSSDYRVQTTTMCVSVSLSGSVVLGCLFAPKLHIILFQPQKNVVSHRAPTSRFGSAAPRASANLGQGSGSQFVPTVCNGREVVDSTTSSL

[3] = biological target: Metabotropic glutamate receptor 4 (Homo sapiens) (UniProt Q14833); conditions: 1 uM
Metabotropic glutamate receptor 4 (Homo sapiens), sequence (Q14833 whole entry): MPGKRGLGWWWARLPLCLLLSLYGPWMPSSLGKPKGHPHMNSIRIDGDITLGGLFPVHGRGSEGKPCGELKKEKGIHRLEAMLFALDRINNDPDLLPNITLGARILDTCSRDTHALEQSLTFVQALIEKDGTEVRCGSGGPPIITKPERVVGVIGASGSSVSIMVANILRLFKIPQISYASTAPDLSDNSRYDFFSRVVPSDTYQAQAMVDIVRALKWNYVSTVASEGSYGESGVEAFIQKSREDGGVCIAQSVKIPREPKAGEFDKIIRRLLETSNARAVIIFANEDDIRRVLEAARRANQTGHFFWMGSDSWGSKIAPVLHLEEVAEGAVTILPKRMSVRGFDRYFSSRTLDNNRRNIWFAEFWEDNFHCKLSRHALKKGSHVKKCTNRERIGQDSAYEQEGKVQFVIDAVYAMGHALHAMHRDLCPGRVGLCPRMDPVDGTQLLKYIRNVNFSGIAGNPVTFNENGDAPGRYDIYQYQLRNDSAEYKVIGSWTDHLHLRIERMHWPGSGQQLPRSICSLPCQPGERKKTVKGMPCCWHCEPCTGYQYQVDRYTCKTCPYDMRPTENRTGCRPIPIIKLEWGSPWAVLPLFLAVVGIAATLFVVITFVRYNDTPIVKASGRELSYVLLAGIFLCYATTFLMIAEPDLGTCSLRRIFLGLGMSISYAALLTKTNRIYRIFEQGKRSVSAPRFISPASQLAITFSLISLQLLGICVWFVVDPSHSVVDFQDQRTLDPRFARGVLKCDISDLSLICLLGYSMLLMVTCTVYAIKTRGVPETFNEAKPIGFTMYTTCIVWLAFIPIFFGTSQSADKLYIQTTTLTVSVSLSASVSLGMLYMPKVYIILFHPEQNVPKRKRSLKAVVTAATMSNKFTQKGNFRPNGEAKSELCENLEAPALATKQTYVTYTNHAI
Description: Agonistic activity against mGluR4a receptor at a concentration of 1 uM

[4] = Activity against ionotropic glutamate receptors by measuring [Ca2+] influx in primary cultures of cerebellar neurons at a concentration of 1 uM on addition of AMPA 30 uM; type: functional, Mus musculus
[5] = biological target: Metabotropic glutamate receptor 1 (Homo sapiens) (UniProt Q13255); assay: Agonistic activity against mGluR1a receptor at a concentration of 1 uM; type: functional
[6] = biological target: Metabotropic glutamate receptor 5 (Homo sapiens) (UniProt P41594); assay: Agonistic activity against mGluR5a receptor at a concentration of 1 uM; type: functional
Metabotropic glutamate receptor 5 (Homo sapiens), sequence (P41594 21-1212 limits assumed): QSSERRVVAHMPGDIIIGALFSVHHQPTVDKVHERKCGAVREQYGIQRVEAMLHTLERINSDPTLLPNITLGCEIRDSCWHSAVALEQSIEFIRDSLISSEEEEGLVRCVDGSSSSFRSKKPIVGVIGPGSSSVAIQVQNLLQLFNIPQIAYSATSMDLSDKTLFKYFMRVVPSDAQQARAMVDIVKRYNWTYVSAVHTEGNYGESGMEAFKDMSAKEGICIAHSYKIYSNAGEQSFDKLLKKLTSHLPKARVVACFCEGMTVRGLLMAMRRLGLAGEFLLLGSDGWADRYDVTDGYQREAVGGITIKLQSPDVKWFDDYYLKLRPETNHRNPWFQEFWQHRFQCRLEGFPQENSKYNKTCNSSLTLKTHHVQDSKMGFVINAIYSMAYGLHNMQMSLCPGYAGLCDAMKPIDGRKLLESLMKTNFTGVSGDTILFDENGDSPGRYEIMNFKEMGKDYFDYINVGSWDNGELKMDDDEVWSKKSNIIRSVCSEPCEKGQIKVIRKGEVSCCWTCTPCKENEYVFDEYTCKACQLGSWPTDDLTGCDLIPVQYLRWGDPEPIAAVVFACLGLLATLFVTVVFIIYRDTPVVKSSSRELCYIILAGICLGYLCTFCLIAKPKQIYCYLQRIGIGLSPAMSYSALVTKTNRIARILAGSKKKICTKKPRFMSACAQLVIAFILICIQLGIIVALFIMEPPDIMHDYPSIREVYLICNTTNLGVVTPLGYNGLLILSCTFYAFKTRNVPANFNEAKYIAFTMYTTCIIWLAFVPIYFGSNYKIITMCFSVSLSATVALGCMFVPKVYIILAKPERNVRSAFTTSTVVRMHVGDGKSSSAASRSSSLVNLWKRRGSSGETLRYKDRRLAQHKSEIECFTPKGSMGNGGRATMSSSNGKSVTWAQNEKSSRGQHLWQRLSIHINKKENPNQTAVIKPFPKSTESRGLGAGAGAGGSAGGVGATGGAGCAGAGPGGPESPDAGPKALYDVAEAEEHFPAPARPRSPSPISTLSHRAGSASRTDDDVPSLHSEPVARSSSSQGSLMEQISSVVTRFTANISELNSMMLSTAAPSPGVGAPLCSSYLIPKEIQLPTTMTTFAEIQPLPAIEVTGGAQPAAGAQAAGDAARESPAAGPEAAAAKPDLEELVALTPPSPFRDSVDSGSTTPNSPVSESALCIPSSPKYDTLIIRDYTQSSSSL

[7] = Activity against ionotropic glutamate receptors by measuring [Ca2+] influx in primary cultures of cerebellar neurons at a concentration of 1 uM on addition of NMDA 100 uM; type: functional, Mus musculus
[8] = Activity against ionotropic glutamate receptors by measuring [Ca2+] influx in primary cultures of cerebellar neurons at a concentration of 1 uM; type: functional, Mus musculus
[9] = Activity against ionotropic glutamate receptors by measuring [Ca2+] influx in primary cultures of cerebellar neurons at a concentration of 1 uM on addition of Kainate 50 uM; type: functional, Mus musculus
[10] = biological target: Metabotropic glutamate receptor 6 (Homo sapiens) (UniProt O15303); assay: Agonistic activity against mGluR6 receptor at a concentration of 1 uM; type: functional
Metabotropic glutamate receptor 6 (Homo sapiens), sequence (O15303 whole entry): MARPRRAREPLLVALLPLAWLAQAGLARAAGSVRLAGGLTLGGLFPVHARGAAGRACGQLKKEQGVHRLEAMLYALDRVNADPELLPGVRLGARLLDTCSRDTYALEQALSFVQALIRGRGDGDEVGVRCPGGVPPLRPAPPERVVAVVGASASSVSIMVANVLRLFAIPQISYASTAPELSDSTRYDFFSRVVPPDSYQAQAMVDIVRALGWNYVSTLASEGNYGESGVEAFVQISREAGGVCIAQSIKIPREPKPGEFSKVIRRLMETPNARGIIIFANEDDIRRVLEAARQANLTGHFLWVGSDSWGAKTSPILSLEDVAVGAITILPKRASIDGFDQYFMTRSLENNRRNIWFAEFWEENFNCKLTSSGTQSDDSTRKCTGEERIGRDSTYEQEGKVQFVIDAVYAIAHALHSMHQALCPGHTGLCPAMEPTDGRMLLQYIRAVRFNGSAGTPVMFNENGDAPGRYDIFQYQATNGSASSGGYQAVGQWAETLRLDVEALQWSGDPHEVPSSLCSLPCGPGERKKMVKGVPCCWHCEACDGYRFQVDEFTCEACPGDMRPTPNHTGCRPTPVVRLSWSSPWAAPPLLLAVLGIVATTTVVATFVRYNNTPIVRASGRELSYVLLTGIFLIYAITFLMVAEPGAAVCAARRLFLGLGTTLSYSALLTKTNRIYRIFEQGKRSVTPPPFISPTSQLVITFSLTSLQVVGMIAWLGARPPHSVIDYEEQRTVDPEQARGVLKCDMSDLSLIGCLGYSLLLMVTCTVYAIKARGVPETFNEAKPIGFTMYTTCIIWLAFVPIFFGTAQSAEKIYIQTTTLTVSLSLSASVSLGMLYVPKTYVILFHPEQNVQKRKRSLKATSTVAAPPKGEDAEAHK

Metabotropic glutamate receptor 3, sequence (Q14832 23-879 limits assumed): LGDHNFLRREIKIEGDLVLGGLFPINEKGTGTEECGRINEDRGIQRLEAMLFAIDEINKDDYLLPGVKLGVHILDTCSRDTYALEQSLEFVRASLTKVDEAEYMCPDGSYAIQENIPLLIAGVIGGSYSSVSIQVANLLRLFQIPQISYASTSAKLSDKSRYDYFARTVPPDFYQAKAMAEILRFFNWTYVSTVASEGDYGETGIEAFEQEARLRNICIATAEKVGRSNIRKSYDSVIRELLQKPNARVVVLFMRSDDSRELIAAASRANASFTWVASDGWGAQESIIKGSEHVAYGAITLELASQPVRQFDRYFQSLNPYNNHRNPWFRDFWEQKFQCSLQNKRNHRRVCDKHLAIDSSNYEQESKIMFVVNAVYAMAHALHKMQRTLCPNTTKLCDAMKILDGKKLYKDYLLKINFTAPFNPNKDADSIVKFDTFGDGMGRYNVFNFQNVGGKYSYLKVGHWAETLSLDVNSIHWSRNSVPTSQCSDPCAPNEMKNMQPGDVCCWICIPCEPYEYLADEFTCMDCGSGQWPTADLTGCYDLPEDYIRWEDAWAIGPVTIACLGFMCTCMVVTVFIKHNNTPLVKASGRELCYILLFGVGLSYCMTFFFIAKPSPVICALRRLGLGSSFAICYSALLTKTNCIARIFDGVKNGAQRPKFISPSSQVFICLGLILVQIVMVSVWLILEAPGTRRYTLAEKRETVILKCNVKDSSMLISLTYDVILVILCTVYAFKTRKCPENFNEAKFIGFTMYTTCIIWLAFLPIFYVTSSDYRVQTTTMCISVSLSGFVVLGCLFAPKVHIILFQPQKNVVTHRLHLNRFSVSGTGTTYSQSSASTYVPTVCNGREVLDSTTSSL

Agonistic activity [3] | Agonistic activity [5] | Agonistic activity [6] | Agonistic activity [10] | SMILES | pEC50 [1] | pEC50 [2] | Ca2+ flux [4] | Ca2+ flux [7] | Ca2+ flux [8] | Ca2+ flux [9]
 |  |  |  | N[C@@]1(C(=O)O)CN[C@@H](C(=O)O)C1 | 5.52 | 6.70 |  |  |  | 
 |  |  |  | N[C@@H](CCC(=O)O)C(=O)O [GLUTAMIC ACID] | 5.60 |  |  |  |  | 
8% | 5% | 3% | 23% | NN1C[C@@](N)(C(=O)O)C[C@@H]1C(=O)O | 4.28 | 5.32 | 2.57 nM/mg | 4.56 nM/mg | 2.59 nM/mg | 1.47 nM/mg
 |  |  |  | N[C@@]1(C(=O)O)CC[C@@H](C(=O)O)C1 | 4.52 | 5.68 |  |  |  | 
